Legend:
[1] = Determination of bioavailability in a dog; format: in vivo; conditions: plasma, male beagle dogs, IV bolus 1 mg/kg vs oral gavage 5 mg/kg, AUC comparison
Description: The following protocol was used to estimate the bioavailability of test compounds in a dog. Test compounds were formulated in vehicles compatible with intravenous and oral dosing. Test compounds were administered to male beagle dogs via an intravenous bolus at 1 mg/kg (1 mg/mL at a dose volume of 1 mL/kg) or via oral gavage at 5 mg/kg (1 mg/mL at a dose volume of 5 mL/kg). Blood samples were collected via the contralateral (to intravenous bolus) jugular vein or via other accessible vein, at various timepoints following administration out to 24 hours post dose. Plasma samples (EDTA) were obtained by centrifugation (2200×g for 10 minutes at 5° C.) and stored frozen ([…]) until analyzed for parent compound via LC/MS/MS. Pharmacokinetic parameters were estimated from the plasma concentration time data by standard non-compartmental methods utilizing standard analysis software. By comparing the area under the curve (AUC) for IV and PO administration estimates of oral bioavailability were determined.

[2] = target: Factor Xa (Homo sapiens (Human), UniProt P00742); test: Dose response assay for protease inhibitors: Factor Xa; format: biochemical; conditions: selectivity, Factor Xa over Factor XIa
Factor Xa, sequence (P00742 235-488): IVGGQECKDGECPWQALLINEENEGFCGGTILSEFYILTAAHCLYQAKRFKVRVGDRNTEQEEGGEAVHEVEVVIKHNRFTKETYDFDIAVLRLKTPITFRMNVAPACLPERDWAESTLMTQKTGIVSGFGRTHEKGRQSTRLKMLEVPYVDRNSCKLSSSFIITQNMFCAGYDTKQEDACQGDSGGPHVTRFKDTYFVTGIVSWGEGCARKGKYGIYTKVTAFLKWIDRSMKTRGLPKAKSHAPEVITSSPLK
Factor Xa, sequence (P00742 41-179 partner): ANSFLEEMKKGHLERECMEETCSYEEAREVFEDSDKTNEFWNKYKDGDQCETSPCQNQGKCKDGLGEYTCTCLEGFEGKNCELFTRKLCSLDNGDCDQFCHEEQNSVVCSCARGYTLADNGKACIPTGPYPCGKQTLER
Outline: (§1)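 Fluorogenic AMC-peptide cleavage in 20 mM Hepes pH 7.4, 150 mM NaCl, 0.02% Tween 20; 100 μM stock substrate dilution (Glp-Pro-Arg-AMC for thrombin/trypsin; Pro-Phe-Arg-AMC or Boc-Leu-Gly-Arg-AMC for Factor Xa). Enzyme diluted to 0.5 nM, added last to two-fold compound series; kinetic read at 30° C, 30 min (Factor Xa 60 min); IC50 fitted.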

[3] = Metabolic stability in dog hepatocytes; format: in vitro ADME; conditions: pooled cryopreserved hepatocytes; beagle dog hepatocytes, 2 μM compound; read-out: Dog Hepatocyte Stability (t1/2)
Outline: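 Pooled cryopreserved beagle hepatocytes at 500,000 cells/mL in Krebs-Henseleit buffer with 2 μM compound, 37 °C, 5% CO2, sampled out to 180 min. Acetonitrile-quenched samples analysed by LC-MS/MS; percent remaining from peak area versus time zero.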

[4] = tested on: Trypsin; test: Dose response assay for protease inhibitors: trypsin; format: biochemical; conditions: selectivity, trypsin over Factor XIa
Outline: as §1

[5] = Plasma protein binding by equilibrium dialysis; format: in vitro ADME; conditions: both sexes, pH 7.4, pooled human plasma, 4 hours at 37° C., read-out: PPB (%)
Outline: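 Pooled mixed-gender human plasma spiked with compound at 10 μM was dialysed against PBS pH 7.4 for 4 h at 37°C. Both compartments were quantified by HPLC-MS/MS, and % bound was calculated from plasma vs buffer peak areas.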

[6] = target: Thrombin (Homo sapiens (Human), UniProt P00734); test: Dose response assay for protease inhibitors: thrombin; format: biochemical; conditions: selectivity, thrombin over Factor XIa
Outline: as §1

| Compound | bioavailability [1] [%] | Ratio: FXa/FXIa [2] | half-life at 2 μM [3] [h] | fraction unbound at 4 h, 10 μM [5] | Ratio: Thrombin/FXIa [6] | Ratio: Trypsin/FXIa [4] |
| --- | --- | --- | --- | --- | --- | --- |
| CC[C@@H](NC(=O)N1C(=O)[C@H](Cc2ccnc(N)c2)[C@H]1C(=O)N(C)c1ccn(C)n1)c1ccccc1 [Compound 1-3, (2S,3R)-3-((2-aminopyridin-4-yl)methyl)-N2-(1-methyl-1H-pyrazol-3-yl)-N1-((R)-1-phenylpropyl)-N2-methyl-4-oxoazetidine-1,2-dicarboxamide] | > 30 | I (“I” indicates > 500) | > 4 | 0.1 to 0.5 | H (“H” indicates 101-1000) | G (“G” indicates 1-100) |
| CC[C@@H](NC(=O)N1C(=O)[C@H](Cc2ccnc(N)c2)[C@H]1C(=O)N(C)c1ccnn1C)c1cccc(Cl)c1 [Compound 1-4, (2S,3R)-3-((2-aminopyridin-4-yl)methyl)-N2-(1-methyl-1H-pyrazol-5-yl)-N1-((R)-1-(3-chlorophenyl)propyl)-N2-methyl-4-oxoazetidine-1,2-dicarboxamide] | > 30 | I (“I” indicates > 500) | 1.02 to 2 | 0.1 to 0.5 | I (“I” indicates > 500) | G (“G” indicates 1-100) |
| CC[C@@H](NC(=O)N1C(=O)[C@H](Cc2ccnc(N)c2)[C@H]1C(=O)N(C)c1cccs1)c1ccccc1 [Compound 1-10, (2S,3R)-3-((2-aminopyridin-4-yl)methyl)-N2-(thiophen-2-yl)-N1-((R)-1-phenylpropyl)-N2-methyl-4-oxoazetidine-1,2-dicarboxamide] | 11 to 30 | H (“H” indicates 101-1000) | < 1 | 0.05 to 0.09 | H (“H” indicates 101-1000) | G (“G” indicates 1-100) |
| CC[C@@H](NC(=O)N1C(=O)[C@H](Cc2cc(C)nc(N)c2)[C@H]1C(=O)N(C)c1ccn(C)n1)c1cccc(Cl)c1 [Compound 1-89, (2S,3R)-3-((2-amino-6-methylpyridin-4-yl)methyl)-N2-(1-methyl-1H-pyrazol-3-yl)-N1-((R)-1-(3-chlorophenyl)propyl)-N2-methyl-4-oxoazetidine-1,2-dicarboxamide] | > 30 | I (“I” indicates > 500) | > 4 | 0.1 to 0.5 | H (“H” indicates 101-1000) | G (“G” indicates 1-100) |
| CC[C@@H](NC(=O)N1C(=O)[C@H](Cc2ccnc(N)c2)[C@H]1C(=O)N(C)c1ccn(C)n1)c1cccc(Cl)c1 [Compound 1-91, (2S,3R)-3-((2-aminopyridin-4-yl)methyl)-N2-(1-methyl-1H-pyrazol-3-yl)-N1-((R)-1-(3-chlorophenyl)propyl)-N2-methyl-4-oxoazetidine-1,2-dicarboxamide] | > 30 | H (“H” indicates 101-1000) | 1.02 to 2 | 0.1 to 0.5 | H (“H” indicates 101-1000) | G (“G” indicates 1-100) |
| CC[C@@H](NC(=O)N1C(=O)[C@H](Cc2ccnc(N)c2)[C@H]1C(=O)N(C)c1ccnn1C)c1ccccc1 [Compound 1-92, (2S,3R)-3-((2-aminopyridin-4-yl)methyl)-N2-(1-methyl 1H-pyrazol-5-yl)-N1-((R)-1-phenylpropyl)-N2-methyl-4-oxoazetidine-1,2-dicarboxamide] | > 30 | I (“I” indicates > 500) | 2.02 to 4 | 0.1 to 0.5 | H (“H” indicates 101-1000) | G (“G” indicates 1-100) |
| CC[C@@H](NC(=O)N1C(=O)[C@H](Cc2cc(C)nc(N)c2)[C@H]1C(=O)N(C)c1ccnn1C)c1ccc(F)c(F)c1 [Compound 1-158, (2S,3R)-3-((2-amino-6-methylpyridin-4-yl)methyl)-N2-(1-methyl-1H-pyrazol-5-yl)-N1-((R)-1-(3,4-difluorophenyl)propyl)-N2-methyl-4-oxoazetidine-1,2-dicarboxamide] |  | I (“I” indicates > 500) | 2.02 to 4 | 0.05 to 0.09 | I (“I” indicates > 500) | G (“G” indicates 1-100) |

Continued, in another order:

| bioavailability [1] [%] | Ratio: FXa/FXIa [2] | half-life at 2 μM [3] [h] | fraction unbound at 4 h, 10 μM [5] | Ratio: Thrombin/FXIa [6] | Compound | Ratio: Trypsin/FXIa [4] |
| --- | --- | --- | --- | --- | --- | --- |
| > 30 | I (“I” indicates > 500) | 2.02 to 4 | 0.1 to 0.5 | I (“I” indicates > 500) | CC[C@@H](NC(=O)N1C(=O)[C@H](Cc2ccnc(N)c2)[C@H]1C(=O)N(C)c1nccn1C)c1ccccc1 [Compound 1-13, (2S,3R)-3-((2-aminopyridin-4-yl)methyl)-N2-(1-methyl-1H-imidazol-2-yl)-N1-((R)-1-phenylpropyl)-N2-methyl-4-oxoazetidine-1,2-dicarboxamide] | G (“G” indicates 1-100) |
| 11 to 30 | I (“I” indicates > 500) | 2.02 to 4 | 0.1 to 0.5 | H (“H” indicates 101-1000) | CC[C@@H](NC(=O)N1C(=O)[C@H](Cc2cc(C)nc(NC)c2)[C@H]1C(=O)N(C)c1nccn1C)c1ccccc1 [Compound 1-45, (2S,3R)-3-((2-methylamino-6-methylpyridin-4-yl)methyl)-N2-(1-methyl-1H-imidazol-2-yl)-N1-((R)-1-phenylpropyl)-N2-methyl-4-oxoazetidine-1,2-dicarboxamide] | G (“G” indicates 1-100) |
| > 30 | I (“I” indicates > 500) | > 4 | 0.1 to 0.5 | H (“H” indicates 101-1000) | CC[C@@H](NC(=O)N1C(=O)[C@H](Cc2cc(C)nc(N)c2)[C@H]1C(=O)N(C)c1nccn1C)c1ccccc1 [Compound 1-51, (2S,3R)-3-((2-amino-6-methylpyridin-4-yl)methyl)-N2-(1-methyl-1H-imidazol-2-yl)-N1-((R)-1-phenylpropyl)-N2-methyl-4-oxoazetidine-1,2-dicarboxamide] | G (“G” indicates 1-100) |
| < 10 | I (“I” indicates > 500) | 2.02 to 4 | < 0.5 | H (“H” indicates 101-1000) | CC[C@@H](NC(=O)N1C(=O)[C@H](Cc2ccnc(N)c2)[C@H]1C(=O)N(C)c1nccn1C)c1ccc(C)nc1 [Compound 1-81, (2S,3R)-3-((2-aminopyridin-4-yl)methyl)-N2-(1-methyl-1H-imidazol-2-yl)-N1-((R)-1-(6-methylpyridin-3-yl)propyl)-N2-methyl-4-oxoazetidine-1,2-dicarboxamide] | G (“G” indicates 1-100) |
